Legend:
[1] = biological target: T1, human serum albumin (HSA) (Homo sapiens, UniProt P02768); assay: Spectrofluorimetric titration, HSA fluorescence quenching; assay type: binding; conditions: for KSV (Stern–Volmer quenching constant) / kq (quenching rate constant): PBS, 2.0 µM HSA; for ΔH° of HSA binding / ΔS° of HSA binding: van't Hoff, 296–310 K
T1 construct: purchased Sigma-Aldrich
Experimental: The fluorescence spectroscopy method was used to examine the possible binding ways of human serum albumin (HSA) with the investigated compounds. […] The fluorescence of HSA was recorded at an excitation wavelength of 290 nm, while the recording range was set at 300–500 nm. The gradual decrease in the maximum emission intensity of the HSA with an increasing concentration of all investigated compounds was monitored at about 330 nm.
Fluorescence quenching parameters were determined using the Stern–Volmer equation (Equation (2)):(2) I0/I=1+kqτ0Q=1+KSVQ.
The notations in the previous equation include I0 and I as HSA fluorescence intensities in the absence and presence of the quencher, while KSV and kq are the Stern–Volmer quenching constant and the quenching rate constant of HSA, τ0 is the fluorophore lifetime of HSA (in the absence of the quencher), and [Q] is the concentration of the quencher. The binding constant (Kb) and the number of binding sites (n) were calculated using the Hill equation (Equation (3)):(3) logI0−I/I=logKb+nlogQ. where I0 and I represent the HSA fluorescence intensities in the absence and presence of the quencher, and [Q] is the concentration of the quencher.
The thermodynamic parameters ΔH°, ΔS°, and ΔG° were calculated using the following equations:(4) lnKb=−∆H^°/RT+∆S^°/R (5) ∆G^°=∆H^°−T∆S^°
To obtain information on the quenching, binding, and thermodynamic parameters for the interaction of the ligand and complex (CL and CC) towards human serum albumin (HSA), spectrofluorimetric investigations were carried out. All experiments were performed under physiological conditions in phosphate-buffered saline (PBS) and at different temperatures (296 K, 303 K, and 310 K).

[2] = system: Peritoneal exudate cells (PECs); assay: Crystal violet (CV) viability assay on primary cells, 72 h; assay type: cell-based, C57BL/6 mice; conditions: mouse peritoneal exudate cells, read-out: IC50 PEC CV
Experimental: Peritoneal exudate cells (PECs) were isolated from the peritonea of 8–12-week-old C57BL/6 mice via a cavity rinse with ice-cold PBS. Cells were seeded in HEPES-buffered RPMI-1640 medium supplemented with 5% heat-inactivated FBS and antibiotics. The animals were from the animal facility of the Institute for Biological Research “Siniša Stanković” (IBISS) National Institute of the Republic of Serbia (Belgrade, Serbia). Animal handling was conducted and protocols were followed by the local Institutional Animal Care and Use Committee (IACUC) in accordance with local guidelines as well as European Community directives (EEC Directive of 1986; 86/609/EEC). The ethical approval number is 323-07-02147/2023-05.
(§1) The cells were treated with a range of CL, CC, and cisplatin concentrations for 72 h. At the end of the treatment, the cell viability was determined using MTT and crystal violet assays, as previously described. PECs were seeded at a density of 1.8 × 10^5 cells/well in 96-well plates, and two hours later, non-adherent cells were removed by washing the wells with PBS. The remaining adherent cells were treated the same way as the tumor cells. The PEC viability was estimated after 72 h of treatment using the CV assay only.

[3] = system: HeLa cells; assay: CFSE staining of cell proliferation, flow cytometry; assay type: cell-based, human; conditions: IC50 dose, 72 h
Experimental: To analyze the distribution of cells in the different phases of the cell cycle using flow cytometry, cells were collected at the end of the treatment and processed as previously described. To detect the presence of apoptotic cells, the treated HeLa cells were double-stained with Annexin V-FITC/PI in Annexin V-binding buffer according to the manufacturer’s instructions. For caspase activation, cells were incubated with FITC-labeled pan-caspase inhibitor ApoStat (0.5 μg/mL) for 30 min at 37 °C. The cells were then washed, resuspended in PBS, and analyzed using flow cytometry. The effect of the compounds on cell proliferation was analyzed via CFSE staining using flow cytometry in the same manner as previously described. DAF-FM was used to determine the intracellular production of nitric oxide in the treated HeLa cells, DHE was used to detect intracellular superoxide and hydrogen peroxide, and DHR123 was used to detect the cumulative intracellular production of reactive oxygen species and nitrogen species. These assays were performed as described in previously published studies. All flow cytometry data were obtained in a CytoFLEX cytometer (Beckman Coulter, Brea, CA, USA) and analyzed using FlowJo software v10 (Tree Star, Ashland, OR, USA).

[4] = system: HCT116 (human colorectal carcinoma cells); assay: MTT viability assay, 72 h; assay type: cell-based; conditions: HCT-116, HCT116, 72 h, mean ± SD
Experimental: (§2) HeLa (human cervical adenocarcinoma cells), A2780 (human ovarian carcinoma cells), MCF7 (human breast adenocarcinoma cells), and HCT116 (human colorectal carcinoma cells) were purchased from American Type Culture Collection (ATCC, Rockville, MD, USA). HeLa, MCF-7, and HCT116 cells were cultivated in HEPES-buffered RPMI-1640, while A2780 cells were cultivated in DMEM. The media were supplemented with 10% heat-inactivated FBS and antibiotics (100 units/mL penicillin and 100 μg/mL streptomycin). The cells were grown at 37 °C in a humidified atmosphere with 5% CO2. For the viability assays, HeLa (3 × 10^3/well), A2780 (8 × 10^3/well), MCF7 (7 × 10^3/well), and HCT116 (6 × 10^3/well) cells were seeded in adherent flat-bottom 96-well plates. For the flow cytometric analyses, HeLa cells were seeded at 8 × 10^4 in 6-well plates.
as §1

[5] = system: HeLa (human cervical adenocarcinoma cells); assay: MTT viability assay, 72 h; assay type: cell-based; conditions: mean ± SD of three experiments
Experimental: as §2, §1

[6] = system: A2780 (human ovarian carcinoma cells); assay: MTT viability assay, 72 h; assay type: cell-based; conditions: A2780, 72 h, mean ± SD
Experimental: as §2, §1

[7] = system: MCF7 (human breast adenocarcinoma cells); assay: MTT viability assay, 72 h; assay type: cell-based; conditions: MCF7, 72 h, mean ± SD
Experimental: as §2, §1

[8] = system: HCT116 (human colorectal carcinoma cells); assay: Crystal violet (CV) viability assay, 72 h; assay type: cell-based; conditions: HCT-116, HCT116, 72 h, mean ± SD
Experimental: as §2, §1

[9] = system: HeLa (human cervical adenocarcinoma cells); assay: Crystal violet (CV) viability assay, 72 h; assay type: cell-based
Experimental: as §2, §1

[10] = system: A2780 (human ovarian carcinoma cells); assay: Crystal violet (CV) viability assay, 72 h; assay type: cell-based; conditions: A2780, 72 h, mean ± SD
Experimental: as §2, §1

[11] = system: MCF7 (human breast adenocarcinoma cells); assay: Crystal violet (CV) viability assay, 72 h; assay type: cell-based; conditions: MCF7, 72 h, mean ± SD
Experimental: as §2, §1

T1 sequence (P02768 25-609): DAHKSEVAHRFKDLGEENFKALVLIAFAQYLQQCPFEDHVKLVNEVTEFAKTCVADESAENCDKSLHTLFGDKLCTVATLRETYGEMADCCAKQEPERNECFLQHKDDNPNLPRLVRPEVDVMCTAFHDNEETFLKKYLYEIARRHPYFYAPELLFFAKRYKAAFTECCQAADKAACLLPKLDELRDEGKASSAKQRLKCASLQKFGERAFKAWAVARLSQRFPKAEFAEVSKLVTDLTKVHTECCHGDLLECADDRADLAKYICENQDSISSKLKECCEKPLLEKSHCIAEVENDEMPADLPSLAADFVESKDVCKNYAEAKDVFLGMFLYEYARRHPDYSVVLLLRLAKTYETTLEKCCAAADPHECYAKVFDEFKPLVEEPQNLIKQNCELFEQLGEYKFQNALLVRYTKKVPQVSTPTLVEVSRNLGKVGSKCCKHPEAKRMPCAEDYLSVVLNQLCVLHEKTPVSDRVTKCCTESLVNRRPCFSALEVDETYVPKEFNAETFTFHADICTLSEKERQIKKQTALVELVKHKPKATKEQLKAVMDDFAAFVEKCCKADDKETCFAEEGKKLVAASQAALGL

Structure (SMILES) | n (HSA), number of binding sites ([1]; 296 K) | ΔG° of HSA binding ([1]; 296 K) [kcal/mol] | KSV (Stern–Volmer quenching constant) ([1]; 296 K) [M⁻¹] | kq (quenching rate constant) ([1]; 296 K) | n (HSA), number of binding sites ([1]; 303 K) | ΔG° of HSA binding ([1]; 303 K) [kcal/mol] | KSV (Stern–Volmer quenching constant) ([1]; 303 K) [M⁻¹] | kq (quenching rate constant) ([1]; 303 K) [M⁻¹ s⁻¹] | n (HSA), number of binding sites ([1]; 310 K) | ΔG° of HSA binding ([1]; 310 K) [kcal/mol] | KSV (Stern–Volmer quenching constant) ([1]; 310 K) [M⁻¹] | kq (quenching rate constant) ([1]; 310 K) [M⁻¹ s⁻¹] | ΔH° of HSA binding [1] [kcal/mol] | ΔS° of HSA binding [1] [J mol^−1K^−1] | IC50 [2] [µM] | effect on proliferation of HeLa cells (CFSE) [3] | also measured
COc1cc([N+]2=C(C)c3c(c4ccc(OC(C)=O)cc4oc3=O)[O][Pd-2]23[O]c2c(c(=O)oc4cc(OC(C)=O)ccc24)C(C)=[N+]3c2ccc(O)c(OC)c2)ccc1O [CC, Bis-3-(1-((4-hydroxy-3-methoxyphenyl)amino)ethylidene)-2,4-dioxochroman-7-yl acetate palladium(II) complex] | 1.07 | -7.921 | 295000 | 2.95e+13 M⁻¹ | 1.06 | -7.99 | 272000 | 2.72e+13 | 1.10 | -8.059 | 280000 | 2.8e+13 | -5.014 | −41.09 | 92.9 | does not inhibit the proliferation of HeLa cells | 
COc1cc(N/C(C)=C2/C(=O)Oc3cc(OC(C)=O)ccc3C2=O)ccc1O [CL, (E)-3-(1-((4-hydroxy-3-methoxyphenyl)amino)ethylidene)-2,4-dioxochroman-7-yl acetate] | 0.66 | -4.515 | 95600 | 9.56e+12 M⁻¹ s⁻¹ | 0.71 | -5.533 | 76900 | 7.69e+12 | 1.09 | -6.551 | 72700 | 7.27e+12 | 38.535 | 608.51 | 96.3 | does not inhibit the proliferation of HeLa cells | IC50 [4]: 54.4 ± 4.3 µM; IC50 [5]: 11.1 ± 0.4 µM; IC50 [6]: 21.1 ± 1.4 µM; IC50 [7]: 45.6 ± 3.5 µM; IC50 [8]: 60.2 ± 3.8 µM; IC50 ([9]; CV assay, mean ± SD of three experiments, read-out: IC50 HeLa CV): 17.7 ± 1.2 µM; IC50 ([9]; rounded IC50 used as treatment dose, assay not stated (matches CV), read-out: IC50 values on HeLa cells as used for flow cytometry treatment): 17 µM; IC50 [10]: 24.1 ± 1.4 µM; IC50 [11]: 44 ± 1.7 µM

Source: PMC11597210, “A Comprehensive Evaluation of a Coumarin Derivative and Its Corresponding Palladium Complex as Potential Therapeutic Agents in the Treatment of Gynecological Cancers: Synthesis, Characterization, and Cytotoxicity” (Pharmaceutics, 2024)
